Each compound was assayed against Arachidonate 15-lipoxygenase (Oryctolagus cuniculus) (assay: Inhibitory activity against reticulocyte 15-lipoxygenase in rabbit was evaluated.).

Row | Compound | IC50 [µM]
1 | O=C(Nc1ccc(CCc2ccc(O)c(O)c2)cc1)c1cc(Br)ccc1O [5-Bromo-N-{4-[2-(3,4-dihydroxy-phenyl)-ethyl]-phenyl}-2-hydroxy-benzamide] | 1.5
2 | Cc1ccc(C(=O)N(C)c2ccc(CCc3ccc(O)c(O)c3)cc2)c(O)c1 [N-{4-[2-(3,4-Dihydroxy-phenyl)-ethyl]-phenyl}-2-hydroxy-4,N-dimethyl-benzamide] | 5
3 | O=C(O)c1cccc(C(=O)Nc2ccc(CCc3ccc(O)c(O)c3)cc2)c1O [N-{4-[2-(3,4-Dihydroxy-phenyl)-ethyl]-phenyl}-2-hydroxy-isophthalamic acid] | > 25

Now from value to compound:

Row | IC50 [µM] | Compound
4 | > 25 | COc1cc(CCc2ccc(NC(=O)c3ccc(C)cc3O)cc2)ccc1O [2-Hydroxy-N-{4-[2-(4-hydroxy-3-methoxy-phenyl)-ethyl]-phenyl}-4-methyl-benzamide]
5 | 1.2 | O=C(Nc1ccc(CCc2ccc(O)c(O)c2)cc1)c1cccc(Cl)c1O [3-Chloro-N-{4-[2-(3,4-dihydroxy-phenyl)-ethyl]-phenyl}-2-hydroxy-benzamide]
6 | > 25 | O=C(Nc1ccc(CCc2ccc(O)c(O)c2)cc1)c1ccc(-c2ccccc2)cc1O [3-Hydroxy-biphenyl-4-carboxylic acid {4-[2-(3,4-dihydroxy-phenyl)-ethyl]-phenyl}-amide]
7 | 5 | O=C(Nc1ccc(CCc2ccc(O)c(O)c2)cc1)c1ccc(O)cc1O [N-{4-[2-(3,4-Dihydroxy-phenyl)-ethyl]-phenyl}-2,4-dihydroxy-benzamide]
8 | > 25 | COc1ccc(CCc2ccc(NC(=O)c3ccccc3O)cc2)cc1OC [N-{4-[2-(3,4-Dimethoxy-phenyl)-ethyl]-phenyl}-2-hydroxy-benzamide]

Source: BindingDB's records for doi:10.1016/0960-894X(95)00565-B (1996)
